Assay: Storage stability of aqueous adjuvant formulations: clear isotropic single-phase solution after 24 hours at the temperature of interest
Format: physicochemical
Set-up: key: Pass: Samples which were found to be clear isotropic solutions after 24 hours were classified as a pass; Fail: all other results were classed as a fail
From the text: For the purposes of the present invention we define a stable formulation of adjuvant in water as one where the mixture forms a homogeneous or single phase liquid. The liquid may be a micellar solution however it will appear isotropic to the naked eye. […] This stability allows the design of products with shelf lives potentially running to several years. […]

For `COCc1cnc(C2=NC(C)(C(C)C)C(=O)N2)c(C(=O)O)c1` (stereo not drawn) [Imazamox, imazamox], the Result (20 °C, Plurafac=0, water=40.5, imazamox=4.5, Tween 20=50, PG=5 % w/w) was “Pass”, the Result (20 °C, Plurafac=0, water=45, imazamox=5, Tween 20=50 % w/w) was “Pass” and the Result (20 °C, Plurafac=0, water=64.8, imazamox=7.2, Tween 20=20, PG=8 % w/w) was “Pass”. The Result (20 °C, Plurafac=0, water=72, imazamox=8, Tween 20=20 % w/w) was “Pass”, the Result (20 °C, Plurafac=0, water=72.9, imazamox=8.1, Tween 20=10, PG=9 % w/w) was “Pass” and the Result (20 °C, Plurafac=0, water=81, imazamox=9, Tween 20=10 % w/w) was “Pass”. For the same compound, the Result (50 °C, Plurafac=0, water=40.5, imazamox=4.5, Tween 20=50, PG=5 % w/w) was “Pass”, the Result (50 °C, Plurafac=0, water=45, imazamox=5, Tween 20=50 % w/w) was “Pass” and the Result (50 °C, Plurafac=0, water=64.8, imazamox=7.2, Tween 20=20, PG=8 % w/w) was “Pass”. For the same compound, the Result (50 °C, Plurafac=0, water=72, imazamox=8, Tween 20=20 % w/w) was “Pass”, the Result (50 °C, Plurafac=0, water=72.9, imazamox=8.1, Tween 20=10, PG=9 % w/w) was “Pass” and the Result (50 °C, Plurafac=0, water=81, imazamox=9, Tween 20=10 % w/w) was “Pass”. The Result (-5 °C, Plurafac=0, water=40.5, imazamox=4.5, Tween 20=50, PG=5 % w/w) was “Fail”, the Result (-5 °C, Plurafac=0, water=45, imazamox=5, Tween 20=50 % w/w) was “Fail” and the Result (-5 °C, Plurafac=0, water=64.8, imazamox=7.2, Tween 20=20, PG=8 % w/w) was “Pass”. For the same compound, the Result (-5 °C, Plurafac=0, water=72, imazamox=8, Tween 20=20 % w/w) was “Pass”, the Result (-5 °C, Plurafac=0, water=72.9, imazamox=8.1, Tween 20=10, PG=9 % w/w) was “Pass” and the Result (-5 °C, Plurafac=0, water=81, imazamox=9, Tween 20=10 % w/w) was “Pass”. For the same compound, the Result (-10 °C, Plurafac=0, water=40.5, imazamox=4.5, Tween 20=50, PG=5 % w/w) was “Fail”, the Result (-10 °C, Plurafac=0, water=45, imazamox=5, Tween 20=50 % w/w) was “Fail” and the Result (-10 °C, Plurafac=0, water=64.8, imazamox=7.2, Tween 20=20, PG=8 % w/w) was “Pass”. The Result (-10 °C, Plurafac=0, water=72, imazamox=8, Tween 20=20 % w/w) was “Pass”, the Result (-10 °C, Plurafac=0, water=72.9, imazamox=8.1, Tween 20=10, PG=9 % w/w) was “Pass” and the Result (-10 °C, Plurafac=0, water=81, imazamox=9, Tween 20=10 % w/w) was “Pass”.

Reference: patent US12446574B2, “Adjuvants for agrochemical formulations” (SYNGENTA CROP PROTECTION AG, priority 2016, dated 2025)
